Target: T1, CYP26 (Mus musculus, UniProt O55127)
T1 construct: tissue Xenotech; host or cells: liver microsomes of ATRA-treated mice
T1 sequence (O55127 1-497): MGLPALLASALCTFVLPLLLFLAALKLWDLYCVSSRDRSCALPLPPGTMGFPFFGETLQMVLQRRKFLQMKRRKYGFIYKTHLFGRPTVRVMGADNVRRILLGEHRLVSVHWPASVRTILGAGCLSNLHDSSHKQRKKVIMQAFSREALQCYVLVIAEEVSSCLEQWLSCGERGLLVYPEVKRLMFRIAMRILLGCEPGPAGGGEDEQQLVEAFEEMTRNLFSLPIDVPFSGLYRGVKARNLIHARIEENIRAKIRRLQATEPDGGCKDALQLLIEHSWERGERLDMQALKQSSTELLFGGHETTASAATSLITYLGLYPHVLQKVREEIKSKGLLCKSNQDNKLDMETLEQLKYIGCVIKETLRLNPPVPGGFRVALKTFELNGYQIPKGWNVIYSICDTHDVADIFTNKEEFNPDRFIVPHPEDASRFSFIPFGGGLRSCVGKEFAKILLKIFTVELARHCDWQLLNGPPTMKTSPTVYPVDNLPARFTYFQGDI
Test: CYP26 inhibition: substrate depletion assay for ATRA metabolism in mouse microsomes
Assay type: biochemical
Description: Serum Testosterone and PSA and Tumor Testosterone Analysis. Tumor tissue obtained from mice will be homogenized in phosphate buffer (pH 7.4, 0.1 M) and homogenates centrifuged at 2000 g for 20 min. Testosterone concentrations in the serum and in the clear tissue homogenate supernatant will be determined with the ELISA kit from R&D Systems (Catalog # KGR010). Serum PSA concentrations will be measured using a PSA ELISA kit with a serum dilution according to the manufacturers instructions. • c. Breast cancer. To test the efficacy of compounds embodied herein against breast cancer, nude mice carrying human breast cancer lines that are estrogen receptor and Aromatase positive will be used. Cells will be grown in vitro and 2 million will be inoculated in Matrigel (50:50 volume ratio of cells to Matrigel). Cells will be distributed by s.c. injection at the right and left flanks or at the orthotopic sitest in 6 to 8 week old athymic nude mice (BALB/c strain) or severe combined immunodeficient mice under anesthesia. Animals will be treated with compound for 4 weeks, at which point animals will be sacrificed and collect blood samples and tumor tissue for the determination of serum and tumor estrogen levels. Tumors will be excised and a portion will be fixed in formalin for subsequent histochemical and immuno-histochemical analysis. The remainder will be snap frozen in liquid nitrogen and stored at −80° C. • 12. CYP26 inhibition activity. A substrate depletion assay for ATRA metabolism in mouse microsomes is used. […] The assay is run in a 100 μL reaction volume and stopped with an equal volume of methanol. […] CYP17 inhibition assay: In vitro assays for CYP17 17α-hydroxylase and C17,20-lyase activity, assays using rat and dog testis microsomes and ELISA kits from commercial vendors for the detection of formed products are employed. Incubation of rat testis microsomes with the substrate progesterone (P4) results, through the CYP17 17α-hydroxylase and C17,20-lyase activities, in a marked production of androstenedione (AD) in a time and enzyme-concentration dependent manner. […] In another control, microsomes isolated from rat livers, which are known to express very little or no CYP17, are shown to be devoid of this activity. Assays are also used that determine the activity of 17α-hydroxylase activity using P4 as a substrate and detecting HOP4 as a product (using dog testis microsomes) and the activity of C17,20-lyase by using HOP4 as a substrate and AD as a product (rat testis microsomes). • 14. CYP19 inhibition assay: For in vitro assays of CYP19 aromatase activity, commercially available CYP19 enzyme preparations (e.g. BD Gentest Supersomes Catalog #456260) and assay kits (e.g. BD Gentest Catalog #459520) are employed according to the manufacturers instructions.
CYP26 inhibition. […] The assay was run in a 100 μL reaction volume and stopped with an equal volume of methanol. […] Other compounds of formula (I) are similarly potent, for example with an IC50 of 1.6 nM.

IC50 [nM]	SMILES
< 1000	CCC(C(c1ccc2nc(Nc3cccc(C(=O)O)c3)sc2c1)n1ccnc1)N(C)C (stereo not shown) [Example 39, 3-((6-(2-(dimethylamino)-1-(1H-imidazol-1-yl)butyl)benzo[d]thiazol-2-yl)amino)benzoic acid]
< 1000	CCC(C(c1ccc2nc(-c3cc(C(=O)O)cc(C(F)(F)F)c3)sc2c1)n1ccnc1)N(C)C (stereo not shown) [Example 70, 3-(6-(2-(Dimethylamino)-1-(1H-imidazol-1-yl)butyl)benzo[d]thiazol-2-yl)-5-(trifluoromethyl)benzoic acid]
< 1000	CCC(CC)C(c1ccc2nc(-c3ccc(Cl)c(C(=O)OC)c3)sc2c1)n1ccnc1 (stereo not shown) [Example 73, Methyl 2-chloro-5-(6-(2-ethyl-1-(1H-imidazol-1-yl)butyl)benzo[d]thiazol-2-yl)benzoate]
< 1000	CCC(C(c1ccc2nc(Oc3cccc(C(=O)O)c3)sc2c1)n1ccnc1)N(C)C (stereo not shown) [Example 54, 3-((6-(2-(Dimethylamino)-1-(1H-imidazol-1-yl)butyl)benzo[d]thiazol-2-yl)oxy)benzoic acid]
< 1000	CCC(C(c1ccc2nc(-c3ccc(Cl)c(C(=O)O)c3)sc2c1)n1ccnc1)N(C)C (stereo not shown) [Example 64, 2-Chloro-5-(6-(2-(dimethylamino)-1-(1H-imidazol-1-yl)butyl)benzo[d]thiazol-2-yl)benzoic acid]
< 1000	CCC(C(c1ccc2nc(NC(=O)c3cccc(C(=O)O)c3)sc2c1)n1ccnc1)N(C)C (stereo not shown) [Example 41, 3-((6-(2-(dimethylamino)-1-(1H-imidazol-1-yl)butyl)benzo[d]thiazol-2-yl)carbamoyl)benzoic acid]
< 1000	CCC(C(c1ccc2nc(-c3ccc(C(=O)O)cc3)sc2c1)n1ccnc1)N(C)CC (stereo not shown) [Example 58, 4-(6-(2-(Ethyl(methyl)amino)-1-(1H-imidazol-1-yl)butyl)benzo[d]thiazol-2-yl)benzoic acid]
< 1000	CCC(C(c1ccc2nc(NC(=O)C3CC4CCC3C4)sc2c1)n1ccnc1)N(C)C (stereo not shown) [Example 52, N-(6-(-2-(dimethylamino)-1-(1H-imidazol-1-yl)butyl)benzo[d]thiazol-2-yl)bicyclo[2.2.1]heptane-2-carboxamide]
< 1000	CCC(C(c1ccc2nc(-c3ccc(-c4nn[nH]n4)cc3)sc2c1)n1ccnc1)N(C)C (stereo not shown) [Example 72, 1-(2-(4-(2H-Tetrazol-5-yl)phenyl)benzo[d]thiazol-6-yl)-1-(1H-imidazol-1-yl)-N,N-dimethylbutan-2-amine]
< 1000	CCC(C(c1ccc2nc(-c3ccc(C(=O)OC)cc3)sc2c1)n1ccnc1)N(C)C (stereo not shown) [Example 25, Methyl 4-(6-(2-(dimethylamino)-1-(1H-imidazol-1-yl)butyl)benzo[d]thiazol-2-yl)benzoate]
< 1000	CCC(CC)C(c1ccc2nc(-c3ccc(C(=O)O)cc3)sc2c1)n1ccnc1 (stereo not shown) [Example 30, 4-(6-(2-Ethyl-1-(1H-imidazol-1-yl)butyl)benzo[d]thiazol-2-yl)benzoic acid]
< 1000	CCC(C(c1ccc2nc(-c3cc(F)cc(C(=O)O)c3)sc2c1)n1ccnc1)N(C)C (stereo not shown) [Example 68, 3-(6-(2-(Dimethylamino)-1-(1H-imidazol-1-yl)butyl)benzo[d]thiazol-2-yl)-5-fluorobenzoicacid]
< 1000	CCC(C(c1ccc2nc(NCc3cccc(C(=O)O)c3)sc2c1)n1ccnc1)N(C)C (stereo not shown) [Example 7, 3-(((6-(2-(Dimethylamino)-1-(1H-imidazol-1-yl)butyl)benzo[d]thiazol-2-yl)amino)methyl)benzoic acid]
< 1000	CCC(C(c1ccc2nc(-c3ccc(C(=O)O)c(Cl)c3)sc2c1)n1ccnc1)N(C)C (stereo not shown) [Example 62, 2-Chloro-4-(6-(2-(dimethylamino)-1-(1H-imidazol-1-yl)butyl)benzo[d]thiazol-2-yl)benzoic acid]
< 1000	CCC(C(c1ccc2nc(-c3cccc(C(=O)O)c3)sc2c1)n1ccnc1)N(C)CC (stereo not shown) [Example 60, 3-(6-(2-(Ethyl(methyl)amino)-1-(1H-imidazol-1-yl)butyl)benzo[d]thiazol-2-yl)benzoic acid]
< 1000	CCC(C(c1ccc2nc(NC(=O)CC(C)(C)C(=O)O)sc2c1)n1ccnc1)N(C)C (stereo not shown) [Example 20, 4-((6-(-2-(dimethylamino)-1-(1H-imidazol-1-yl)butyl)benzo[d]thiazol-2-yl)amino)-2,2-dimethyl-4-oxobutanoic acid]
< 1000	CCC(C(c1ccc2nc(NC(=O)c3ccc(C(=O)O)cc3)sc2c1)n1ccnc1)N(C)C (stereo not shown) [Example 22, 4-((6-(2-(dimethylamino)-1-(1H-imidazol-1-yl)butyl)benzo[d]thiazol-2-yl)carbamoyl)benzoic acid]
< 1000	CCC(C(c1ccc2nc(NC(=O)C3(C(=O)O)CCCC3)sc2c1)n1ccnc1)N(C)C (stereo not shown) [Example 47, 1-((6-(2-(Dimethylamino)-1-(1H-imidazol-1-yl)butyl)benzo[d]thiazol-2-yl)carbamoyl)cyclopentanecarboxylic acid]
< 1000	CCC(C(c1ccc2nc(NC(=O)CCC(C)(C)C(=O)O)sc2c1)n1ccnc1)N(C)C (stereo not shown) [Example 49, 5-((6-(-2-(Dimethylamino)-1-(1H-imidazol-1-yl)butyl)benzo[d]thiazol-2-yl)amino)-2,2-dimethyl-5-oxopentanoic acid]
< 1000	CCC(CC)C(c1ccc2nc(-c3cccc(C(=O)O)c3)sc2c1)n1ccnc1 (stereo not shown) [3-(6-(2-Ethyl-1-(1H-imidazol-1-yl)butyl)benzo[d]thiazol-2-yl)benzoic acid]
< 1000	CCC(C(c1ccc2nc(NCc3ccc(C(=O)O)cc3)sc2c1)n1ccnc1)N(C)C (stereo not shown) [Example 35, 4-(((6-(2-(Dimethylamino)-1-(1H-imidazol-1-yl)butyl)benzo[d]thiazol-2-yl)amino)methyl)benzoic acid]
< 1000	CCC(C(c1ccc2nc(-c3ccc(C(=O)O)cc3)sc2c1)n1ccnc1)N(C)C (stereo not shown) [Example 26, 4-(6-(2-(Dimethylamino)-1-(1H-imidazol-1-yl)butyl)benzo[d]thiazol-2-yl)benzoic acid]
< 1000	CCC(C(c1ccc2nc(Nc3ccc(C(=O)O)cc3)sc2c1)n1ccnc1)N(C)C (stereo not shown) [Example 17, 4-((6-(2-(Dimethylamino)-1-(1H-imidazol-1-yl)butyl)benzo[d]thiazol-2-yl)amino)benzoic acid]
< 1000	CCC(C(c1ccc2nc(-c3ccc(F)c(C(=O)O)c3)sc2c1)n1ccnc1)N(C)C (stereo not shown) [Example 66, 5-(6-(2-(Dimethylamino)-1-(1H-imidazol-1-yl)butyl)benzo[d]thiazol-2-yl)-2-fluorobenzoic acid]
< 1000	CCC(C(c1ccc2nc(-c3cccc(C(=O)O)c3)sc2c1)n1ccnc1)N(C)C (stereo not shown) [Example 56, 3-(6-(2-(Dimethylamino)-1-(1H-imidazol-1-yl)butyl)benzo[d]thiazol-2-yl)benzoic acid]
< 1000	CCC(CC)C(c1ccc2nc(-c3ccc(C(=O)OC)cc3)sc2c1)n1ccnc1 (stereo not shown) [Example 29, Methyl 4-(6-(2-ethyl-1-(1H-imidazol-1-yl)butyl)benzo[d]thiazol-2-yl)benzoate]
< 1000	CCC(CC)C(c1ccc2nc(-c3ccc(Cl)c(C(=O)O)c3)sc2c1)n1ccnc1 (stereo not shown) [Example 74, 2-Chloro-5-(6-(2-ethyl-1-(1H-imidazol-1-yl)butyl)benzo[d]thiazol-2-yl)benzoic acid]
< 1000	CCC(C(c1ccc2nc(NC(=O)C3(C(=O)O)CCC3)sc2c1)n1ccnc1)N(C)C (stereo not shown) [Example 43, 1-((6-(2-(Dimethylamino)-1-(1H-imidazol-1-yl)butyl)benzo[d]thiazol-2-yl)carbamoyl)cyclobutanecarboxylic acid]

From patent US10414760B2, “Cytochrome P450 inhibitors and uses thereof” (ANGION BIOMEDICA CORP., priority 2016, dated 2019)
